{
  "source": "ChEMBL document CHEMBL5214921",
  "about": "“Bacterial type I signal peptidase inhibitors - Optimized hits from nature” (Eur J Med Chem, 2022)",
  "key": {"[1]": {"assay": "Inhibition of LepB (unknown origin)", "parameters": "species or system Bacteria"}, "Staphylococcus aureus [2]": {"tested_on": "Staphylococcus aureus", "assay": "Antibacterial activity against Staphylococcus aureus NCTC 8325 assessed as bacterial cell growth inhibition by CLSI based broth microdilution method", "format": "functional"}, "[3]": {"tested_on": "Staphylococcus epidermidis", "assay": "Antibacterial activity against Staphylococcus epidermidis assessed as bacterial cell growth inhibition by CLSI based broth microdilution method", "format": "functional"}, "Staphylococcus aureus [4]": {"tested_on": "Staphylococcus aureus", "assay": "Antibacterial activity against Staphylococcus aureus assessed as bacterial cell growth inhibition", "format": "functional"}, "[5]": {"tested_on": "Staphylococcus epidermidis", "assay": "Antibacterial activity against Staphylococcus epidermidis assessed as bacterial cell growth inhibition", "format": "functional"}, "Escherichia coli [6]": {"tested_on": "Escherichia coli", "assay": "Antibacterial activity against Escherichia coli ATCC 25922 assessed as bacterial cell growth inhibition", "format": "functional"}, "Pseudomonas aeruginosa [7]": {"tested_on": "Pseudomonas aeruginosa", "assay": "Antibacterial activity against wild type Pseudomonas aeruginosa PA14 assessed as inhibition of bacterial growth […] by CLSI based protocol", "format": "functional"}, "Pseudomonas aeruginosa [8]": {"tested_on": "Pseudomonas aeruginosa", "assay": "Antibacterial activity against wild type Pseudomonas aeruginosa PA14 assessed as inhibition of bacterial growth", "format": "functional"}, "Staphylococcus aureus [9]": {"tested_on": "Staphylococcus aureus", "assay": "Antibacterial activity against methicillin-resistant Staphylococcus aureus assessed as bacterial growth inhibition measured after 24 hrs", "format": "functional"}, "Staphylococcus aureus [10]": {"tested_on": "Staphylococcus aureus", "assay": "Antibacterial activity against methicillin-resistant Staphylococcus aureus assessed as bacterial growth inhibition", "format": "functional"}, "[11]": {"assay": "Inhibition of Escherichia coli Signal peptidase I using decanoyl-k(DABCYL)-TPTAKAASKKD-D(EDANS)-NH2 as substrate by fluorescence-based analysis"}, "[12]": {"assay": "Inhibition of Streptococcus pneumoniae Signal peptidase I using decanoyl-k(DABCYL)-TPTAKAASKKD-D(EDANS)-NH2 as substrate by fluorescence-based analysis"}, "Staphylococcus aureus [13]": {"tested_on": "Staphylococcus aureus", "assay": "Antibacterial activity against Staphylococcus aureus 8325 assessed as bacterial cell growth inhibition measured after 18 hrs by CLSI based broth microdilution method", "format": "functional"}, "Escherichia coli [14]": {"tested_on": "Escherichia coli", "assay": "Antibacterial activity against Escherichia coli MG1655 assessed as bacterial cell growth inhibition measured after 18 hrs by CLSI based broth microdilution method", "format": "functional"}, "Escherichia coli [15]": {"tested_on": "Escherichia coli", "assay": "Antibacterial activity against Escherichia coli assessed as bacterial cell growth inhibition", "format": "functional"}, "[16]": {"tested_on": "Staphylococcus epidermidis", "assay": "Antibacterial activity against Staphylococcus epidermidis ATCC 35984 assessed as bacterial cell growth inhibition measured after 18 hrs by CLSI based broth microdilution method", "format": "functional"}, "[17]": {"assay": "Inhibition of Staphylococcus aureus SpsB incubated for 15 mins by fluorescence based analysis"}},
  "note": "*1 amine or outer side, *2 acyl side, *3 side chain or, on linkers, in order; H or OH if unused. Where a SMILES comes first, the peptide text is derived from it. [ ]: non-standard residue; d: D form. The star is where a group is joined. X1 = C[C@H](N[*:1])C(=O)C(=O)[*:2]; NMeT = CN[C@H](C(=O)O)[C@@H](C)O; Decanoyl = CCCCCCCCCC(=O)*; βAla = NCCC(=O)O",
  "data": [
    {"smiles": "C=CCOC(=O)C1=CS[C@H]2[C@@H]([C@@H](C)OC(C)=O)C(=O)N12", "values": [
      {"measurement": "IC50", "setting": "[1]", "value": 70, "unit": "nM"}
    ]},
    {"smiles": "C[C@@H]1NC(=O)[C@@H](N(C)C(=O)CNC(=O)[C@@H](C)NC(=O)[C@@H](CO)NC(=O)CCCCCCCCc2ccc(-c3ccccc3)cc2)c2ccc(O)c(c2)-c2cc(ccc2O)C[C@@H](C(=O)O)NC1=O", "values": [
      {"measurement": "MIC", "setting": "Staphylococcus aureus [2]", "value": 16, "unit": "µg/mL"},
      {"measurement": "MIC", "setting": "[3]", "value": 16, "unit": "µg/mL"}
    ]},
    {"smiles": "Cc1nc(-c2ccc(C(C)(C)C)cc2)ncc1C(=O)N[C@@H](CCN)C(=O)N(C)[C@@H]1C(=O)N[C@@H](C)C(=O)N[C@H](C(=O)NCC#N)Cc2cc(OCCN)cc(c2)-c2cc1ccc2OCCN", "values": [
      {"measurement": "MIC", "setting": "Staphylococcus aureus [4]", "value": 0.06, "unit": "µg/mL"},
      {"measurement": "MIC", "setting": "[5]", "value": 0.25, "unit": "µg/mL"},
      {"measurement": "MIC", "setting": "Escherichia coli [6]", "value": 0.125, "unit": "µg/mL"},
      {"measurement": "MIC", "setting": "Pseudomonas aeruginosa [7]", "value": 2, "unit": "µM"},
      {"measurement": "MIC", "setting": "Pseudomonas aeruginosa [8]", "value": 1.78, "unit": "µg/mL"}
    ]},
    {"smiles": "CNC(=O)c1cc(Oc2ccc(NC(=O)Nc3ccc(Cl)c(C(F)(F)F)c3)cc2)ccn1", "note": "[SORAFENIB]", "values": [
      {"measurement": "MIC", "setting": "Staphylococcus aureus [9]", "value": 3, "unit": "µM"},
      {"measurement": "MIC", "setting": "Staphylococcus aureus [10]", "value": 1.39, "unit": "µg/mL"}
    ]},
    {"smiles": "CCCC(C)/C=C(/C)C(=O)OC(CCCCCCC/C=C/C(=O)NCCC(=O)N[C@@H](CS(=O)(=O)O)C(=O)N(C)[C@@H]1C(=O)N[C@@H](C)C(=O)N[C@H](C(=O)O)Cc2ccc(O)c(c2)-c2cc1cc(O)c2O[C@@H]1O[C@@H](C)[C@H](OS(=O)(=O)O)[C@@H](OS(=O)(=O)O)[C@H]1O)CCC(C)C", "note": "(stereo partly drawn)", "values": [
      {"measurement": "IC50", "setting": "[11]", "value": 110, "unit": "nM"},
      {"measurement": "IC50", "setting": "[12]", "value": 2400, "unit": "nM"}
    ]},
    {"smiles": "Cc1nc(-c2ccc(C(C)(C)C)cc2)nc(C)c1C(=O)N[C@@H](CCN)C(=O)N(C)[C@@H]1C(=O)N[C@@H](C)C(=O)N[C@H](C(=O)NCC#N)Cc2cc(OCCN)cc(c2)-c2cc1ccc2OCCN", "values": [
      {"measurement": "MIC", "setting": "Pseudomonas aeruginosa [7]", "value": 2, "unit": "µM"},
      {"measurement": "MIC", "setting": "Pseudomonas aeruginosa [8]", "value": 1.81, "unit": "µg/mL"}
    ]},
    {"smiles": "CC(C)CCCCCCCCC(=O)N(C)[C@H](CO)C(=O)N[C@H](C)C(=O)NCC(=O)N(C)[C@@H]1C(=O)N[C@@H](C)C(=O)N[C@H](C(=O)O)Cc2ccc(O)c(c2)-c2cc1ccc2O", "note": "[ARYLOMYCIN A2]", "values": [
      {"measurement": "MIC", "setting": "Staphylococcus aureus [13]", "value": "> 128", "unit": "µM"},
      {"measurement": "MIC", "setting": "Staphylococcus aureus [4]", "value": 104, "unit": "µg/mL"},
      {"measurement": "MIC", "setting": "Escherichia coli [14]", "value": "> 128", "unit": "µM"},
      {"measurement": "MIC", "setting": "Escherichia coli [15]", "value": 104, "unit": "µg/mL"},
      {"measurement": "MIC", "setting": "[16]", "value": 1, "unit": "µM"},
      {"measurement": "MIC", "setting": "[5]", "value": 0.81, "unit": "µg/mL"}
    ]},
    {"smiles": "CCCCCCCCCC(=O)N[C@@H](CC(C)C)C(=O)N[C@H](C(=O)N1CCC[C@H]1C(=O)N(C)[C@H](C(=O)N[C@@H](C)C(=O)N[C@@H](CC(N)=O)C(=O)N[C@@H](C)C(=O)C(=O)NCCC(=O)N[C@@H](CC(=O)O)C(=O)O)[C@@H](C)O)[C@@H](C)O", "note": "(Decanoyl-LTP[NMeT]AN[X1][βAla]D-OH)", "values": [
      {"measurement": "IC50", "setting": "[17]", "value": 100, "unit": "nM"}
    ]},
    {"smiles": "C=CCOC(=O)C1=CS[C@H]2[C@@H]([C@@H](C)O)C(=O)N12", "values": [
      {"measurement": "IC50", "setting": "[1]", "value": 180, "unit": "nM"}
    ]},
    {"smiles": "O=C(Nc1ccc2c(c1)OC(F)(F)O2)Nc1ccc(Cl)c(C(F)(F)F)c1", "values": [
      {"measurement": "MIC", "setting": "Staphylococcus aureus [9]", "value": 0.3, "unit": "µM"},
      {"measurement": "MIC", "setting": "Staphylococcus aureus [10]", "value": 0.12, "unit": "µg/mL"}
    ]},
    {"smiles": "CCCCCCCCCCCCCCCC(=O)N(C)[C@H](CO)C(=O)N[C@H](C)C(=O)NCC(=O)N(C)[C@@H]1C(=O)N[C@@H](C)C(=O)N[C@H](C(=O)O)Cc2ccc(O)c(c2)-c2cc1ccc2O", "note": "[ARYLOMYCIN C16]", "values": [
      {"measurement": "MIC", "setting": "Escherichia coli [14]", "value": 16, "unit": "µM"},
      {"measurement": "MIC", "setting": "Escherichia coli [15]", "value": 13.9, "unit": "µg/mL"},
      {"measurement": "MIC", "setting": "[16]", "value": 0.5, "unit": "µM"},
      {"measurement": "MIC", "setting": "[5]", "value": 0.43, "unit": "µg/mL"}
    ]}
  ]
}
